Experimental findings from patent publication US11572590B2, “Methods for evaluating tumor cell spheroids using 3D microfluidic cell culture device” (Dana-Farber Cancer Institute, Inc., priority 2017, dated 2023) are described below.

The subject of assay [1] is human CD4+ and CD8+ T cells. Nature of the assay: IFNγ secretion by anti-CD3/anti-CD28 stimulated T cells. Format: cell-based. As to conditions: dose-titration, 96 hours. As for the experimental part: (§1) Freshly isolated human CD4+ and CD8+ T cells were obtained from AllCells (Alameda, Calif., USA). Cells were spun down and resuspended in serum free Xvivo15 media (Lonza Walkersville, Inc., Chicago, Ill., USA) supplemented with 5 ng/mL […] and incubated overnight at 37° C. Cells were plated on anti-CD3 coated plates (5 μg/mL OKT3, eBioscience, Dallas, Tex., USA, overnight) with 2 μg/mL anti-CD28 (eBioscience, Dallas, Tex., USA). Cells are treated in replicate plates with a dose-titration of Compound 1 for 24 hours for IL-2 and 96 hours for IFNγ. IL-2 and IFNγ in the supernatant were measured using single- or multi-plex immunoassay (Mesoscale Discovery, Rockville, Md., USA). Jurkat T cell leukemia cells (clone E61 obtained from ATCC) plated on anti-CD3 coated plates were treated with a dose titration of Compound 1 for 24 hours. IL-2 in the supernatant was measured as described above.

The test system of assay [2] is MC38 MDOTS. In words: Live/dead (AO/PI) imaging of MC38 MDOTS in 3D microfluidic culture. The class given is cell-based, murine. The conditions noted are these: Cmpd1 (1 μM) + αPD-1; did not reach significance vs single-agent PD-1. As for the experimental part: (§2) Fresh tumor specimens (murine and human patients) were received in media (DMEM) on ice and minced in a 10 cm dish (on ice) using sterile forceps and scalpel. Minced tumor was resuspended in DMEM ([…], […] sodium pyruvate, 1:100 penicillin-streptomycin) (Corning CellGro, Manassas, Va.) +10% FBS (Gemini Bio-Products, West Sacramento, Calif.), 100 U/mL collagenase type IV (Life Technologies, Carlsbad, Calif.), and 15 mM HEPES (Life Technologies, Carlsbad, Calif.), except for CT26 tumors that were prepared in RPMI. Samples were pelleted and resuspended in 10-20 mL media. Red blood cells were removed from visibly bloody samples using RBC Lysis Buffer (Boston Bio-Products, Ashland, Mass.). […]
(§3) Dual labeling was performed by loading microfluidic device with Nexcelom ViaStain™ AO/PI Staining Solution (Nexcelom, CS2-0106). Following incubation with the dyes (20 minutes at room temperature in the dark), images were captured on a Nikon Eclipse 80i fluorescence microscope equipped with Z-stack (Prior) and CoolSNAP CCD camera (Roper Scientific). […] Live and dead cell quantitation was performed by measuring total cell area of each dye. […]

For assay [3], the system named is B16F10 MDOTS. In words: Live/dead (AO/PI) imaging of B16F10 MDOTS in 3D microfluidic culture. Format: cell-based, murine. As to conditions: Cmpd1 (1 μM) + αPD-1, 6 days. As to the method:
as §2, §3

Assay [4] has as its system MC38 allograft. Nature of the assay: MC38 allograft, Compound 1 and anti-PD-L1 combination in vivo. Also on record: species or system mouse. As to conditions: Cmpd1 + αPD-L1; did not reach significance vs single-agent PD-L1.
For assay [5], the system named is CT26 MDOTS. In words: Bead-based cytokine profiling of CT26 MDOTS. The class given is cell-based, murine. As to conditions: Cmpd1 (1 μM) ± anti-PD-1 (10 μg/mL). As for the experimental part:
as §2
(§4) Two multiplex assays were performed utilizing a bead-based immunoassay approach, the Bio-Plex Pro™ Human Cytokine 40-plex Assay (Cat #171AK99MR2) and Bio-Plex Pro™ Mouse Cytokine Panel 1, 23-plex (Cat #M60009RDPD) on a Bio-plex 200 system (Cat #171000201). […] Fold changes relative to the MDOT/PDOT control were calculated and plotted as log 2FC. Lower and upper limits of quantitation (LLOQ/ULOQ) were imputed from standard curves for cytokines above or below detection. […]

Assay [6] relates to Jurkat T cell leukemia cells. Nature of the assay: IL-2 secretion by Jurkat cells on anti-CD3 coated plates. As to conditions: dose titration, 24 hours. Format: cell-based. As for the experimental part: as §1
For assay [7], the system named is B16F10 MDOTS. In words: Bead-based cytokine profiling of B16F10 MDOTS. Format: cell-based, murine. The conditions noted are these: Cmpd1 (1 μM) ± αPD-1. As to the method: as §2, §4

`N#Cc1cc(-c2ncnc(Nc3ccc(N4CCN(C5COC5)CC4)cc3)n2)ccc1OC1CCOCC1` [Compound 1, 5-(4-((4-(4-(oxetan-3-yl)piperazin-1-yl)phenyl)amino)-1,3,5-triazin-2-yl)-2-((tetrahydro-2H-pyran-4-yl)oxy)benzonitrile]: the “secretion of IFN-γ from purified CD4+ and CD8+ T cells” value in assay [1] is recorded as “enhanced secretion”. Further, the “ex vivo killing of MC38 MDOTS, combination treatment” value in assay [2] was “enhanced ex vivo killing”. In addition, in assay [3], the “sensitization of B16F10 MDOTS to PD-1 blockade (live/dead)” value is recorded as “could not be sensitized”. Moreover, the “in vivo survival, MC38 model, combination treatment” value in assay [4] is “enhanced”. In assay [5], the “cytokines involved in activated innate immune responses (e.g., G-CSF) in CT26 MDOTS” value is listed as “concomitant induction”; the “levels of CCL4, CCL3, and IL-1β in CT26 MDOTS” value is on record as “Decreased levels”. In assay [6], the “secretion of IL-2 from Jurkat cells” value is reported as “enhanced secretion”. In assay [7], the “immune suppressive chemokines (e.g., CCL2, CCL5) in B16F10 MDOTS” value is on record as “downregulation”; the “induction of G-CSF and related innate immune response cytokines in B16F10 MDOTS” value is reported as “without concomitant induction”.
